Experimental data: patent publication US20180360707A1, “COMPOSITION AND METHOD FOR INCREASE OF SURVIVAL AND STABILIZATION OF PROBIOTIC BACTERIA (PB) IN DETERGENT BASED COMPOSITIONS OF PERSONAL HYGIENE AND DOMESTIC PRODUCTS” (UAB "PROBIOSANUS", priority 2015, published 2018)

Test system: Bacillus coagulans DSM 2311
Assay: Analysis of encapsulated and non-capsulated bacteria viability (CFU survival) in detergent solution, cosmetic compound solution or final detergent based product
Format: cell-based
Procedure: For all experimental trails probiotic strain of Bacillus coagulans DSM 2311 was used which was obtained from DSMZ. Bacterial cell suspension was prepared by cultivation of B. coagulans cells in 100 mL of liquid nutrient broth medium (Oxoid) in 1000 mL Erlenmeyer flask, for 24 hours at 37° C. while shaking at 180 rmp. Prior to encapsulation the cells were collected by centrifugation at 6000 rpm using Rotofix 32 A Hettich, then washed twice and re-suspended in sterile 0.9% NaCl solution to obtain cell concentration of 10^11 per mL.
1 g of ˜10^10 bacteria-containing lyophilized and rehydrated or fresh microcapsules was added to the fixed volume (100 mL) of either: detergent solution, cosmetic compound containing solution or final formulation detergent based product, and incubated at 37° C. temperature. The samples were harvested at certain timepoints to evaluate bacterial survival. After sample harvest the bacterial capsules were washed twice with sterile water and added to a fixed volume of sterile 2% sodium citrate solution for liberation of encapsulated bacteria. The cell suspension was diluted from 10^1 to 10^5 fold and 100 μL of solution was plated on Petri dishes filled with Nutrient Broth solid medium. The survival rates [%] of capsulated and non-capsulated bacteria was estimated by comparing CFU averages at each sample point, from 3 replicas. See formulas:
[formula] • N—estimated CFU; • CFU—sum of calculated colonies from each evaluated Petri plates • Vp—plated volume • Vfd—final dilution volume • D—dilution fold • Survival of bacteria [%]=N(1+n)/N1*100 • N1—bacterial CFU's from first timepoint sample • N(1+n)—bacterial CFU's from following timepoint sample
1 g of 10^10 bacteria-containing rehydrated or fresh microcapsules was added to the fixed volume (100 mL) of detergent solution and incubated for 120 hours at 37° C. temperature. A parallel experiment was performed with non-capsulated cells (control group). After the sample harvest the bacterial capsules were washed twice with sterile water and added to the fixed volume of sterile 2% sodium citrate solution for liberation of encapsulated bacteria. The cell suspension was diluted 10^1-10^5 fold and 100 μL plated on replicates of Nutrient Broth solid medium. The survival rates [%] of capsulated and non-capsulated bacteria were estimated as described in the section—Analysis of encapsulated bacteria viability in detergent based solution, by comparing CFU averages at each sample time point from 3 replicas.
1 g of 10^10 bacteria containing lyophilized-rehydrated microcapsules was added to the fixed volume (100 mL) of solutions of: Grapefruit seed extract d-limonene, or Azadirachta indica extract and incubated for 120 hours at 37° C. temperature. A parallel experiment was performed with non-capsulated cells. After sample harvest the bacterial capsules were washed twice with sterile water and added to the fixed volume of sterile 2% sodium citrate solution for liberation of encapsulated bacteria. The cell suspension was diluted 10^1-10^5 fold and 100 μL of solution was plated on replicates of Nutrient Broth solid medium. The survival rates [%] of capsulated and non-capsulated bacteria were estimated as described in the section—Analysis of encapsulated bacteria viability in detergent based solution, by comparing CFU averages at each sample point, from 3 replicas. […]

CCCCCCCCCCCCOS(=O)(=O)[O-].[Na+] [SLS, sodium lauryl sulphate]
non-capsulated bacteria inactivated (6.7% sodium lauryl sulphate (SLS) solution, 37° C.): 80%

C=C(C)[C@H]1CC=C(C)CC1 [terpenes, d-limonene]
non-capsulated B. Coagulans bacteria inactivated (0.7% terpene d-limonene solution, in 2 hours): 100%

cocamide diethanolamine
non-capsulated bacteria inactivated (3% cocamide diethanolamine solution, 37° C.): 75%

cocoamide propyl betaine [CAPB]
non-capsulated bacteria (starting titers) inactivated (cocoamide propyl betaine (CAPB) 6.7% solution, after 0.5 h, 37° C.): 97%

cocoglycozide
non-capsulated bacteria inactivated (7% cocoglycozide solution, 37° C.): 75%
